# In US11857535B2, “Methods of treating mutant lymphomas” (Kymera Therapeutics, Inc., priority 2020, dated 2024):
# Target: T1, IRAK4 (Homo sapiens, UniProt Q9NWZ3)
# T1 construct: endogenous in cells; host or cells: OCI-Ly10
# T1 sequence (Q9NWZ3 1-460): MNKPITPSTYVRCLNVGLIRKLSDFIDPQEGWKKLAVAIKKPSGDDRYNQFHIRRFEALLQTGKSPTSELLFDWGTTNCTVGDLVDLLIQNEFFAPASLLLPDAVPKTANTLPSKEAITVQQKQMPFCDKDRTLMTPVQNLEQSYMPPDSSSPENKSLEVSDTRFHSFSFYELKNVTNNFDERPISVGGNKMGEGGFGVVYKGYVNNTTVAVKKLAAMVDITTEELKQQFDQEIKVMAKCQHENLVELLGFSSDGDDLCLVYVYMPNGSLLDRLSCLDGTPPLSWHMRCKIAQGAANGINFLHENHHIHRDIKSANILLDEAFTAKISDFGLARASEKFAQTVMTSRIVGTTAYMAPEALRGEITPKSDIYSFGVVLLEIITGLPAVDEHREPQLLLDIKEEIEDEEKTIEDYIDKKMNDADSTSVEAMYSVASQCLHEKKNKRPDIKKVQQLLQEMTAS
# Assay: IRAK4 MSD degradation in OCI-Ly10
# Type: cell-based
# Conditions: FIG. 1
# Procedure: Degradation of IRAK4 in OCI-Ly10 was quantitatively measured using Meso Scale Discovery technology. OCI-Ly10 cells were seeded in 96-well plates (Corning 3799) with a density of 300,000 cells per well in 100 μL fresh media. Compounds were then added to the assay plates with a final top concentration of 1 to 10 μM in a 1:3 dilution series with total of 8 doses. The assay plates were then incubated for 4 to 24 hours at 37° C. under 5% CO2. The assay plates were then centrifuged for 5 minutes and the cell pellets were treated with 100 μL/well RIPA lysis buffer (Boston BioProducts BP-115D) with proteinase inhibitors. To prepare MSD assay plates (Meso Scale Discovery Catalog number L15XA-3), the plates were coated with 2 μg/mL capture antibody (mouse Anti-IRAK4 antibody [2H9], ab119942) in PBS, at 40 μL/well. The plates were then incubated overnight at 4° C., washed 3 times with 150 μL/well TBST buffer (Cell Signaling Technology, Catalog number 9997S) and blocked with 150 μL/well blocking buffer (Meso Scale Discovery Catalog number R93BA-4). Cell lysates were then added to MSD assay plates and the plates were incubated at room temperature for 1 hour. The plates were then washed 3 times with 150 μL/well TBST buffer and […] primary detection antibody (rabbit Anti-IRAK4 antibody [Y279], from Abcam. Catalog number ab32511, 1 μg/mL). The assay plates were then incubated at room temperature for 1 hour, washed 3 times with 150 μL/well TBST buffer and 25 μL/well secondary detection antibody, SULFO-TAG anti-rabbit antibody were added (anti rabbit antibody from Meso Scale Discovery, Catalog number R32AB-1, 1 μg/mL). The assay plates were then incubated at room temperature for 1 hour, washed 3 times with 150 μL/well TBST buffer, and 150 μL/well MSD reading buffer (Meso Scale Discovery catalog number R92TC-2) was added. The plates were then analyzed by a MSD reader (Meso Scale Discovery, Model Quick Plex SQ 120). The data was then analyzed by software Prism 7.0 from GraphPad and the dose-depended IRAK4 degradation were fit using a three-parameter logistic equation to calculate DC50.
compound,measurement,value
"CC(C)(O)c1cc2nc([C@H]3CC[C@H](CN4CC5(CC(CCNc6cccc7c6C(=O)N(C6CCC(=O)NC6=O)C7=O)C5)C4)CC3)sc2cc1NC(=O)c1cccc(C(F)(F)F)n1 (stereo partly shown) [Compound A, N-(2-((1r,4r)-4-((6-(2-((2-(2,6-dioxopiperidin-3-yl)-1,3-dioxoisoindolin-4-yl)amino)ethyl)-2-azaspiro[3.3]heptan-2-yl)methyl)cyclohexyl)-5-(2-hydroxypropan-2-yl)benzo[d]thiazol-6-yl)-6-(trifluoromethyl)picolinamide]",IRAK4 degradation associated with CTG IC90,approximately 70%
